The text below walks through data of PubChem BioAssay AID330 (DTP/NCI, 2004).

This assay deals with P388 leukemia ip, CD2F1 mice, survival T/C. The experiment in a line: NCI In Vivo Anticancer Drug Screen. Data for tumor model P388 Leukemia (intraperitoneal) in CD2F1 (CDF1) mice. To be noted: endpoint: median survival time, higher = longer survival. Put shortly:
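Mice carrying the transplanted tumor received test compound or vehicle. Survival was recorded in each group, and the value is the treated-group measurement divided by that of the vehicle-treated control group.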

The mark [1] stands for this setting: dose: 50.0 mg/kg/injection, schedule: Q01DX005 (ip), vehicle: saline with Tween-80.
The mark [2] stands for this setting: dose: 100.0 mg/kg/injection, schedule: Q01DX005 (ip), vehicle: saline with Tween-80.
The mark [3] stands for this setting: dose: 200.0 mg/kg/injection, schedule: Q01DX005 (ip), vehicle: saline with Tween-80.
The mark [4] stands for this setting: dose: 25.0 mg/kg/injection, schedule: Q01DX009 (ip), vehicle: other.
The mark [5] stands for this setting: dose: 50.0 mg/kg/injection, schedule: Q01DX009 (ip), vehicle: other.

Values joined by “and” are separate entries in the source; they are usually repeats but may differ in a detail not shown here. Equal values may be shown once. Toxic doses and inconclusive results are not listed. Square brackets hold non-standard residues; d marks the D form. Peptide text beside a SMILES is read from it. Abu = CC[CH](N)C(=O)O

Regarding `CN(C)CC/C([O-])=N/[n+]1c2c(nc3ccccc31)-c1cccc3cccc-2c13`, the T/C was 109 % of control (dose: 25.0 mg/kg/injection, schedule: Q01DX009 (ip), vehicle: Klucel (hydroxypropylcellulose) (HPC)); 111 % of control (dose: 50.0 mg/kg/injection, schedule: Q01DX009 (ip), vehicle: Klucel (hydroxypropylcellulose) (HPC)); 116 % of control (dose: 100.0 mg/kg/injection, schedule: Q01DX009 (ip), vehicle: Klucel (hydroxypropylcellulose) (HPC)).

Consider `CCN(CC)Cc1cc(Nc2nc(/C=C/c3ccccc3)nc3ccccc23)ccc1O`, for which the T/C is 97 % of control (dose: 50.0 mg/kg/injection, schedule: Q01DX009 (ip), vehicle: distilled water + alcohol); 100 % of control (dose: 100.0 mg/kg/injection, schedule: Q01DX009 (ip), vehicle: distilled water + alcohol); 98 % of control (dose: 200.0 mg/kg/injection, schedule: Q01DX009 (ip), vehicle: distilled water + alcohol).

For `C=CCn1c(-c2cccc(O)c2)n[nH]c1=S`, the T/C was 104 % of control (dose: 25.0 mg/kg/injection, schedule: Q01DX009 (ip), vehicle: saline with Tween-80); 115 % of control (dose: 50.0 mg/kg/injection, schedule: Q01DX009 (ip), vehicle: saline with Tween-80); 96 % of control (dose: 100.0 mg/kg/injection, schedule: Q01DX009 (ip), vehicle: saline with Tween-80).

Turning to `CCc1ncc(C(C)(O)c2ccccc2)n1Cc1ccccc1` (stereo not given), the T/C (dose: 60.0 mg/kg/injection, schedule: Q01DX005 (ip), vehicle: Klucel (hydroxypropylcellulose) (HPC)) was 100 % of control; the T/C (dose: 120.0 mg/kg/injection, schedule: Q01DX005 (ip), vehicle: Klucel (hydroxypropylcellulose) (HPC)) is 102 % of control; the T/C (dose: 240.0 mg/kg/injection, schedule: Q01DX005 (ip), vehicle: Klucel (hydroxypropylcellulose) (HPC)) is 99 % of control.

As for `CC(=O)C1C(=O)OC(C)(C)C1C=C(Cl)Cl` (stereo not given), the T/C by setting is: (dose: 100.0 mg/kg/injection, schedule: Q04DX002 (ip), vehicle: saline with Tween-80) 101 % of control; (dose: 200.0 mg/kg/injection, schedule: Q04DX002 (ip), vehicle: saline with Tween-80) 107 % of control; (dose: 400.0 mg/kg/injection, schedule: Q04DX002 (ip), vehicle: saline with Tween-80) 109 % of control.

`COc1ccccc1P(C)(=O)c1ccccc1` (stereo not given): the T/C is, setting by setting: (dose: 50.0 mg/kg/injection, schedule: Q01DX005 (ip), vehicle: Klucel (hydroxypropylcellulose) (HPC)) 102 % of control; (dose: 100.0 mg/kg/injection, schedule: Q01DX005 (ip), vehicle: Klucel (hydroxypropylcellulose) (HPC)) 103 % of control; (dose: 200.0 mg/kg/injection, schedule: Q01DX005 (ip), vehicle: Klucel (hydroxypropylcellulose) (HPC)) 98 % of control.

As for `CC1CCC2(CC1C)C(=O)NC(=O)NC2=O` (stereo not given), the T/C (dose: 12.5 mg/kg/injection, schedule: Q04DX003 (ip), vehicle: Klucel (hydroxypropylcellulose) (HPC)) was 100 % of control; the T/C (dose: 25.0 mg/kg/injection, schedule: Q04DX003 (ip), vehicle: Klucel (hydroxypropylcellulose) (HPC)) is 97 % of control; the T/C (dose: 50.0 mg/kg/injection, schedule: Q04DX003 (ip), vehicle: Klucel (hydroxypropylcellulose) (HPC)) is 105 % of control; the T/C (dose: 100.0 mg/kg/injection, schedule: Q04DX003 (ip), vehicle: Klucel (hydroxypropylcellulose) (HPC)) was 100 % of control.

`CC(NNC(=S)N1CC2CCC(CC2)C1)c1cccc[n+]1[O-]` (stereo not given): the T/C under setting [1] is 101 % of control, the T/C under setting [2] is 100 % of control and the T/C under setting [3] is 100 % of control.

`O=[N+]([O-])c1ccccc1N/N=C\c1cccc2c(/C=N/Nc3ccccc3[N+](=O)[O-])c(Cl)n(-c3ccccc3)c12`: under “dose: 200.0 mg/kg/injection, schedule: Q01DX001 (ip), vehicle: Klucel (hydroxypropylcellulose) (HPC)”, the T/C is 88 % of control.

With `CCC(C)Nc1ccc(N)cc1` (stereo not given), the T/C by setting is: (dose: 0.1 mg/kg/injection, schedule: Q01DX009 (ip), vehicle: carboxymethylcellulose (CMC)) 115 % of control; (dose: 0.39 mg/kg/injection, schedule: Q01DX009 (ip), vehicle: Klucel (hydroxypropylcellulose) (HPC)) 95 % of control; (dose: 0.4 mg/kg/injection, schedule: Q01DX009 (ip), vehicle: carboxymethylcellulose (CMC)) 111 % of control; (dose: 0.78 mg/kg/injection, schedule: Q01DX009 (ip), vehicle: Klucel (hydroxypropylcellulose) (HPC)) 102 % of control; (dose: 1.56 mg/kg/injection, schedule: Q01DX009 (ip), vehicle: Klucel (hydroxypropylcellulose) (HPC)) 104 % of control and 110 % of control; (dose: 3.12 mg/kg/injection, schedule: Q01DX009 (ip), vehicle: Klucel (hydroxypropylcellulose) (HPC)) 100 % of control and 119 % of control. For the same compound, the T/C (dose: 6.25 mg/kg/injection, schedule: Q01DX009 (ip), vehicle: Klucel (hydroxypropylcellulose) (HPC)) was 108 % of control and 112 % of control.

For `CCC(N)C(=O)NC(CO)C(=O)O` (stereo not given) (H-[Abu]-Ser-OH; configuration not given here), the T/C (dose: 50.0 mg/kg/injection, schedule: Q01DX005 (ip), vehicle: saline) was 106 % of control; the T/C (dose: 100.0 mg/kg/injection, schedule: Q01DX005 (ip), vehicle: saline) was 109 % of control; the T/C (dose: 200.0 mg/kg/injection, schedule: Q01DX005 (ip), vehicle: saline) is 106 % of control.

Turning to `COc1cc(Br)c(C(=O)N(C)c2ccccc2)cc1OC`, the T/C under setting [4] was 106 % of control and the T/C under setting [5] is 108 % of control.

As for `CCC12CCCN3CCC4(c5cccc(O)c5NC4CC1)C32` (stereo not given), the T/C (dose: 60.0 mg/kg/injection, schedule: Q01DX005 (ip), vehicle: saline) is 101 % of control; the T/C (dose: 120.0 mg/kg/injection, schedule: Q01DX005 (ip), vehicle: saline) is 94 % of control; the T/C (dose: 240.0 mg/kg/injection, schedule: Q01DX005 (ip), vehicle: saline) was 101 % of control.

As to `Cc1c(Cl)cccc1Nc1ncccc1C(=O)OCC(O)CO` (stereo not given), the T/C was 96 % of control under setting [1], 98 % of control under setting [2] and 95 % of control under setting [3].

As to `COC(=O)c1[nH]cnc1O`, the T/C reads like this: (dose: 50.0 mg/kg/injection, schedule: Q01DX005 (ip), vehicle: water) 103 % of control; (dose: 100.0 mg/kg/injection, schedule: Q01DX005 (ip), vehicle: water) 113 % of control; (dose: 200.0 mg/kg/injection, schedule: Q01DX005 (ip), vehicle: water) 103 % of control.

Regarding `CCc1c(COC(=O)NC)c(COC(=O)NC)cc2c1[nH]c1ccccc12`, the T/C is 88 % of control under setting [1], 88 % of control under setting [2] and 89 % of control under setting [3].

As for `CC(=O)/C(=C\c1ccc(O)cc1)C(=O)CCN(C)C`, the T/C reads like this: under setting [1], 108 % of control; under setting [2], 112 % of control; under setting [3], 112 % of control.

On to `CCCC(=O)OCc1cc(=O)n(C)c2c3c4c(cc12)c(C)cc(=O)n4CO3`, for which the T/C was 157 % of control (dose: 12.5 mg/kg/injection, schedule: Q01DX009 (ip), vehicle: other); 151 % of control and 171 % of control under setting [4]; 163 % of control under setting [5].

Consider `CN(C)c1cccc2c(Cl)c(Cl)c3cccc(N(C)C)c3c12`, for which the T/C was 98 % of control (dose: 60.0 mg/kg/injection, schedule: Q01DX005 (ip), vehicle: saline with Tween-80); 100 % of control (dose: 120.0 mg/kg/injection, schedule: Q01DX005 (ip), vehicle: saline with Tween-80); 99 % of control (dose: 240.0 mg/kg/injection, schedule: Q01DX005 (ip), vehicle: saline with Tween-80).

`CO[C@@]12[C@H](COC(N)=O)C3=C(C(=O)C(C)=C(NCCO)C3=O)N1C[C@@H]1N[C@@H]12`: the T/C was 95 % of control (dose: 12.5 mg/kg/injection, schedule: Q01DX009 (ip), vehicle: saline sonified); 100 % of control (dose: 12.5 mg/kg/injection, schedule: Q04DX003 (ip), vehicle: saline with Tween-80); 95 % of control (dose: 25.0 mg/kg/injection, schedule: Q01DX009 (ip), vehicle: saline sonified); 100 % of control (dose: 25.0 mg/kg/injection, schedule: Q04DX003 (ip), vehicle: saline with Tween-80); 95 % of control (dose: 50.0 mg/kg/injection, schedule: Q01DX009 (ip), vehicle: saline sonified); 100 % of control (dose: 50.0 mg/kg/injection, schedule: Q04DX003 (ip), vehicle: saline with Tween-80).

On to `O=C(Nc1ccc(CCC2=NCCCN2)cc1)c1ccc(C(=O)Nc2ccc(CCC3=NCCCN3)cc2)cc1`, for which the T/C is, setting by setting: (dose: 25.0 mg/kg/injection, schedule: Q01DX005 (ip), vehicle: saline with Tween-80) 115 % of control; under setting [1], 113 % of control.

Take `Cc1cc(NS(=O)(=O)c2ccc(N=c3c4ccccc4n(Cc4ccccc4)c4ccccc34)cc2)no1`: the T/C was 98 % of control under setting [1], 97 % of control under setting [2] and 88 % of control under setting [3].
